Measurements published in US8883714B2, “Pharmaceutical compositions comprising GPR119 agonists which act as peptide YY (PYY) secretagogues” (Arena Pharmaceuticals, Inc., priority 2008, dated 2014).
One block for each molecule: values may come before it.

What was measured:
[1] = tested on: plasma total PYY; assay: Effect of oral GPR119 agonist on plasma total PYY in wild-type mice (PYY EIA kit); format: in vivo, C57BL/6 male mice; conditions: 10 mg/kg per orally; fasted 18 h; glucose bolus 3 g/kg 30 min after treatment; blood at 0, 2, 5, 10 min; FIG. 3
Method: C57BL/6 male mice (approximately 8 weeks of age; obtained from Harlan, Indianapolis, Ind.) were fasted for 18 hours, and randomly assigned into eight groups with n=6 for each group. Mice were administered per orally with vehicle (80% polyethylene glycol 400/10% Tween 80/10% ethanol) or with a GPR119 agonist (Compound 1; (2-Fluoro-4-methanesulfonyl-phenyl)-{6-[4-(3-isopropyl-[1,2,4]oxadiazol-5-yl)-piperidin-1-yl]-5-nitro-pyrimidin-4-yl}-amine) at 10 mg/kg, as indicated in FIG. 3. Thirty minutes after treatment, a glucose bolus at 3 g/kg was delivered per orally, and blood was collected at 0 minute (no glucose bolus), 2 minutes, 5 minutes, and 10 minutes after glucose bolus. Plasma total PYY (inclusive of PYY1-36 and PYY3-36) levels were determined by using a PYY EIA kit purchased from Phoenix Pharmaceuticals, Inc. (Peptide YY (PYY) (Rat, Mouse, Porcine, Canine) EIA kit, Catalog No. EK-059-03) according to instructions provided in the kit. […] From the results shown in FIG. 3, it is apparent that the GPR119 agonist (Compound 1) stimulated plasma total PYY in the mice. Compound 1 is identical to a compound disclosed in International Patent Application No. PCT/US2004/001267 (published as WO 2004/065380).

[2] = tested on: plasma total PYY; assay: Effect of oral GPR119 agonist on plasma total PYY in wild-type littermates (paper example); format: in vivo, wild-type mice; conditions: 20 mg/kg per orally; glucose bolus 3 g/kg; blood at 0 and 5 min
Method: (§1) GPR119-deficient male mice (Chu et al, Endocrinology (2007) 148:2601-2609) and wild-type littermates are fasted for 18 hours. Mice are administered per orally with vehicle (80% polyethylene glycol 400/10% ethanol/10% Tween 80) or with a GPR119 agonist in accordance with the present invention (Compound 1; (2-Fluoro-4-methanesulfonyl-phenyl)-{6-[4-(3-isopropyl-[1,2,4]oxadiazol-5-yl)-piperidin-1-yl]-5-nitro-pyrimidin-4-yl}-amine) at 20 mg/kg. Thirty minutes after treatment, blood (100 microliter) is collected via retro orbital vein of the eye (time 0 minutes) followed by a glucose bolus at 3 g/kg (per orally). Five minutes after delivering glucose, another blood sample (100 microliter) is collected (time 5 minutes). Plasma are collected after centrifugation and plasma total PYY levels are determined by using PYY EIA kit purchased from Phoenix Pharmaceuticals, Inc. (Peptide YY (PYY) (Rat, Mouse, Porcine, Canine) EIA kit, Catalog No. EK-059-03) according to instructions provided in the kit. It can be further shown that functional GPR119 receptor is necessary for the administered GPR119 agonist to increase plasma total PYY in the mice. […] Compound 1 is identical to a compound disclosed in International Patent Application No. PCT/US2004/001267 (published as WO 2004/065380).

[3] = molecular target: T1, human GPR119 receptor (Homo sapiens, UniProt Q8TDV5); assay: cAMP assay (Flash Plate adenylyl cyclase kit) in GPR119-transfected HEK293 cells; format: cell-based; conditions: GPR119-transfected HEK293 cells vs empty vector; 60 min at room temperature; FIG. 2
T1 construct: Full-Length Cloning of Endogenous Human GPR119; expressed in transfected cells; host or cells: HEK293 cells, transient transfection with Lipofectamine
T1 sequence (Q8TDV5 1-335): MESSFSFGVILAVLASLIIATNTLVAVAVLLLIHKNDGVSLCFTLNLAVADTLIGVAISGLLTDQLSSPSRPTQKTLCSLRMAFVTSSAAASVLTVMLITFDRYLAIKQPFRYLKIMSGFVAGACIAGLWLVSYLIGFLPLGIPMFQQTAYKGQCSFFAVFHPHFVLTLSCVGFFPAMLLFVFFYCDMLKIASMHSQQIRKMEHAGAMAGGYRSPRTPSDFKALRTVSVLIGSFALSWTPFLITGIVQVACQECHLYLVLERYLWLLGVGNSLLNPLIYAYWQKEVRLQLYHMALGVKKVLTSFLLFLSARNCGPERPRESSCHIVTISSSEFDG
Method: Briefly, HEK293 cells were transfected with either empty vector DNA (“Vector”) or human GPR119 receptor expression plasmid DNA (“GPR119”) using Lipofectamine (Invitrogen, Carlsbad, Calif.). After 24 h, transfected cells were harvested in GIBCO (Gaithersburg, Md.) cell dissociation buffer (Catalog no. 13151-014) and resuspended in assay buffer (50% 1×PBS/50% stimulation buffer). Compound 1 was incubated with 10^5 cells per well for 60 min at room temperature. After another 2-h incubation with tracer in detection buffer, plates were counted in a Wallac (Gaithersburg, Md.) MicroBeta scintillation counter. Values of cAMP per well were extrapolated from a standard cAMP curve that was included on each assay plate.

[4] = tested on: plasma total PYY; assay: Effect of oral GPR119 agonist on plasma total PYY in GPR119-deficient (knockout) mice (paper example); format: in vivo, GPR119-deficient male mice; conditions: 20 mg/kg per orally; glucose bolus 3 g/kg; blood at 0 and 5 min
Method: as §1

[5] = humans, cited from earlier work

agonist activity at GPR119 receptor (stimulation of cAMP accumulation) [3]: agonist of GPR119 receptor
Molecule: CC(C)c1noc(C2CCN(c3ncnc(Nc4ccc(S(C)(=O)=O)cc4F)c3[N+](=O)[O-])CC2)n1 [Compound 1, (2-Fluoro-4-methanesulfonyl-phenyl)-{6-[4-(3-isopropyl-[1,2,4]oxadiazol-5-yl)-piperidin-1-yl]-5-nitro-pyrimidin-4-yl}-amine]
effect on plasma total PYY (inclusive of PYY1-36 and PYY3-36) [1]: increased plasma total PYY
effect on plasma total PYY in wild-type mice [2]: stimulate plasma total PYY in the wild-type mice
effect on plasma total PYY in GPR119-deficient mice [4]: not in the GPR119-deficient mice

Molecule: PYY3-36: generated from PYY1-36 by cleavage of the N-terminal Tyr and Pro residues by dipeptidyl peptidase IV; high-affinity Y2R selective agonist
time of decline of serum PYY3-36 to basal levels ([5]; after infusion): ≤ 30 min
time to peak serum levels of PYY3-36 ([5]; infusion to reach normal postprandial circulatory concentrations): ≤ 15 min
reduction of food intake ([5]; infusion, over 24 hours): 33%
